The term IC50 denotes the concentration needed to halve the response being measured.

Data set [1] concerns the target glucosylceramide synthase (GCS) (Homo sapiens (Human), UniProt Q16739). Put plainly: Evaluation of inhibitory activities against GCS (A549 cell lysate, NBD C6-ceramide, HPLC). The data set is classed as biochemical. In short, it runs like this:
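GCS activity in A549 cell lysate (50 mM HEPES, pH 7.3) with NBD C6-ceramide, reacted 90 min at 37 °C. Lipids were chloroform/methanol-extracted and separated by normal-phase HPLC with fluorescence detection (ex 470/em 530 nm). GlcCer fraction of peak area was normalized between DMSO and ibiglustat, and IC50 obtained by curve fitting.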

Data set [2] has as its system GM1 production in Jurkat cells. Put plainly: cells. The data set is classed as cell-based.
Data set [3] in a line: Evaluation of blood-brain barrier (BBB) permeability through oral administration. The data set is classed as in vivo, mice. Conditions: mice, oral, dose 30 mg/kg, 4 hr; for Kp at 4 h / concentration at 4 h: mouse, in vivo; for Kp at 4 h: read-out: Mean brain-plasma drug ratio at 4 hr. Summed up:
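Mice dosed orally at 10 or 30 mg/10 ml/kg, suspended in 0.5% methyl cellulose with 0.2% Tween 80. Plasma and forebrain homogenate taken 4 hours post-dose, drug measured by LC-MS/MS; brain/plasma ratio calculated from tissue concentrations.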

Where [4] appears, read: read-out: Mean drug concentrations in brain tissue at 4 hr.
The mark [5] stands for this setting: read-out: Mean drug concentrations in plasma at 4 hr.
The mark [6] stands for this setting: % GCS activity, A549 cell lysate, 37° C. for 90 minutes, read-out: IC50.

The structures appear in SMILES notation. Like-named read-outs stand apart in the source and are kept apart here.

Sequence of glucosylceramide synthase (GCS) (Q16739 whole entry): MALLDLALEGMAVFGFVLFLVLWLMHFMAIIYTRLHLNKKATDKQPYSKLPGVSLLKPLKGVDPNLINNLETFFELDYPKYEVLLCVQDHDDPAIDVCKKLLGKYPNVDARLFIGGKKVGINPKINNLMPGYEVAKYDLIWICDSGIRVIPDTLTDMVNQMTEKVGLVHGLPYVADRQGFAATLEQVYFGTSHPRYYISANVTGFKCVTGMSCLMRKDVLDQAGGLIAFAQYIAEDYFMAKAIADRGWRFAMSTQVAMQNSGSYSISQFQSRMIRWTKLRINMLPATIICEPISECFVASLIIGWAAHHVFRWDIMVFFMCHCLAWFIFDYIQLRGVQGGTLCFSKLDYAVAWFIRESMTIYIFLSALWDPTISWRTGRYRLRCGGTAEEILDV

With `CCCOc1c(C)cc(-c2cc3c(cc2F)[C@H](NC(=O)O[C@@H]2CN4CCC2CC4)C(C)(C)C3)cc1C` [Example 64, (S)-quinuclidin-3-yl((R)-5-(3,5-dimethyl-4-propoxyphenyl)-6-fluoro-2,2-dimethyl-2,3-dihydro-1H-inden-1-yl)carbamate], the half-inhibitory concentration (IC50) in data set [1] is 3.92 nM; in data set [2] (Homo sapiens, Jurkat, 72 h) it was 11.6 nM. Moreover, in data set [3], the Kp at 4 h came to 4.43. The concentration at 4 h in data set [3] (setting [4]) turned out to be 1040 ng/g; in data set [3] (setting [5]), 234 ng/mL.
In the case of `CCOc1ccc(-c2cc3c(cc2F)[C@H](NC(=O)O[C@@H]2CN4CCC2CC4)C(C)(C)CC3)cc1` [Example 176, (S)-quinuclidin-3-yl((R)-6-(4-ethoxyphenyl)-7-fluoro-2,2-dimethyl-1,2,3,4-tetrahydronaphthalen-1-yl)carbamate], the IC50 in data set [1] worked out at 0.24 nM; in data set [2] (Homo sapiens, Jurkat, 72 h), 2.1 nM. Also, in data set [3], the Kp at 4 h came out at 3.58. The concentration at 4 h is 4860 ng/g in data set [3] (setting [4]) and 1360 ng/mL in data set [3] (setting [5]).
On the same counts, the results for `CCOc1ccc(-c2ccc3c(c2)CC(C)(C)[C@H]3NC(=O)O[C@@H]2CN3CCC2CC3)c(Cl)c1` [Example 44, (S)-quinuclidin-3-yl((R)-5-(2-chloro-4-ethoxyphenyl)-2,2-dimethyl-2,3-dihydro-1H-inden-1-yl)carbamate] are 0.17 nM, 2.3 nM, 4.79, 8860 ng/g and 1850 ng/mL.
Take `CC(C)Oc1ccc(-c2ccc3c(c2)CC(C)(C)[C@H]3NC(=O)O[C@@H]2CN3CCC2CC3)c(Cl)c1` [Example 32, (S)-quinuclidin-3-yl((R)-5-(2-chloro-4-isopropoxyphenyl)-2,2-dimethyl-2,3-dihydro-1H-inden-1-yl)carbamate]: the IC50 in data set [1] is 0.192 nM; in data set [2] (Homo sapiens, Jurkat, 72 h), 4.23 nM. In data set [3], the Kp at 4 h was determined as 4.23. Further, the concentration at 4 h in data set [3] (setting [4]) was found to be 5650 ng/g; in data set [3] (setting [5]), 1340 ng/mL.
Take `COc1ccc(-c2ccc3c(c2)CCC(C)(C)[C@H]3NC(=O)O[C@@H]2CN3CCC2CC3)c(F)c1` [Example 151, (S)-quinuclidin-3-yl((R)-6-(2-fluoro-4-methoxyphenyl)-2,2-dimethyl-1,2,3,4-tetrahydronaphthalen-1-yl) carbamate]: the IC50 in data set [1] (setting [6]) was 0.49 nM. Further, the 50% inhibitory concentration (IC50) in data set [2] (read-out: IC50) worked out at 5.2 nM. In data set [3], the “Mean brain-plasma drug ratio at 4 hr” value came out at 2.04, the “Mean drug concentrations in brain tissue at 4 hr” value was 2441.3 ng/g and the “Mean drug concentrations in plasma at 4 hr” value worked out at 1196.4 ng/mL.
In the case of `CC(C)c1cccc(-c2ccc3c(c2)CCC(C)(C)[C@H]3NC(=O)O[C@@H]2CN3CCC2CC3)c1` [Example 162, (S)-quinuclidin-3-yl((R)-6-(3-isopropylphenyl)-2,2-dimethyl-1,2,3,4-tetrahydronaphthalen-1-yl)carbamate], the IC50 in data set [1] is 7.55 nM; in data set [2] (Homo sapiens, Jurkat, 72 h) it was 1.4 nM. For the same molecule, the Kp at 4 h in data set [3] is 3.71. Moreover, the values for the concentration at 4 h in data set [3] (setting [4]) and in data set [3] (setting [5]) were 3570 ng/g and 967 ng/mL, respectively.
On the same counts, the results for `CC(C)Oc1ccc(-c2ccc3c(c2)CCC(C)(C)[C@H]3NC(=O)O[C@@H]2CN3CCC2CC3)c(Cl)c1` [Example 168, (S)-quinuclidin-3-yl((R)-6-(2-chloro-4-isopropoxyphenyl)-2,2-dimethyl-1,2,3,4-tetrahydronaphthalen-1-yl)carbamate] are 0.188 nM, 0.23 nM, 1.18, 3370 ng/g and 2890 ng/mL.
On the same counts, the results for `COc1cc(-c2ccc3c(c2)CC(C)(C)[C@H]3NC(=O)O[C@@H]2CN3CCC2CC3)ccc1OC(C)C` [Example 35, (S)-quinuclidin-3-yl((R)-5-(4-isopropoxy-3-methoxyphenyl)-2,2-dimethyl-2,3-dihydro-1H-inden-1-yl)carbamate] are 2.22 nM, 3.3 nM, 1.85, 2010 ng/g and 1080 ng/mL.
On the same counts, the results for `CC(C)Oc1ccc(-c2cc3c(cc2F)[C@H](NC(=O)O[C@@H]2CN4CCC2CC4)C(C)(C)C3)cc1F` [Example 83, (S)-quinuclidin-3-yl((R)-6-fluoro-5-(3-fluoro-4-isopropoxyphenyl)-2,2-dimethyl-2,3-dihydro-1H-inden-1-yl)carbamate] are 0.58 nM, 10.4 nM, 6.29, 7370 ng/g and 1170 ng/mL.
`CCCc1ccc(-c2cc3c(cc2F)[C@H](NC(=O)O[C@@H]2CN4CCC2CC4)C(C)(C)CC3)cc1` [Example 171, (S)-quinuclidin-3-yl((R)-7-fluoro-2,2-dimethyl-6-(4-propylphenyl)-1,2,3,4-tetrahydronaphthalen-1-yl)carbamate]: the IC50 in data set [1] was 0.19 nM; in data set [2] (Homo sapiens, Jurkat, 72 h), 1.4 nM. Besides, the Kp at 4 h in data set [3] came to 3.88. Further, the concentration at 4 h stood at 2900 ng/g in data set [3] (setting [4]) and 748 ng/mL in data set [3] (setting [5]).
With `CC(C)Oc1cccc(-c2ccc3c(c2)CCC(C)(C)[C@H]3NC(=O)O[C@@H]2CN3CCC2CC3)c1` [Example 165, (S)-quinuclidin-3-yl((R)-6-(3-isopropoxyphenyl)-2,2-dimethyl-1,2,3,4-tetrahydronaphthalen-1-yl)carbamate], the IC50 in data set [1] turned out to be 0.55 nM; in data set [2] (Homo sapiens, Jurkat, 72 h), 2.51 nM. In addition, the Kp at 4 h in data set [3] turned out to be 2.83. Besides, the concentration at 4 h in data set [3] (setting [4]) worked out at 2400 ng/g; in data set [3] (setting [5]), 852 ng/mL.
On the same counts, the results for `COc1ccc(-c2ccc3c(c2)CC(C)(C)[C@H]3NC(=O)O[C@@H]2CN3CCC2CC3)cc1F` [Example 18, (S)-quinuclidin-3-yl((R)-5-(3-fluoro-4-methoxyphenyl)-2,2-dimethyl-2,3-dihydro-1H-inden-1-yl)carbamate] are 3.19 nM, 50.7 nM, 3.47, 3950 ng/g and 1130 ng/mL.
On the same counts, the results for `CCOc1ccc(-c2cc3c(cc2F)[C@H](NC(=O)O[C@@H]2CN4CCC2CC4)C(C)(C)C3)c(Cl)c1` [Example 104, (S)-quinuclidin-3-yl((R)-5-(2-chloro-4-ethoxyphenyl)-6-fluoro-2,2-dimethyl-2,3-dihydro-1H-inden-1-yl)carbamate] are 0.1 nM, 1.4 nM, 3.76, 5180 ng/g and 1380 ng/mL.
On the same counts, the results for `CC(C)Oc1ccc(-c2cc3c(cc2F)[C@H](NC(=O)O[C@@H]2CN4CCC2CC4)C(C)(C)CC3)cc1Cl` [Example 193, (S)-quinuclidin-3-yl((R)-6-(3-chloro-4-isopropoxyphenyl)-7-fluoro-2,2-dimethyl-1,2,3,4-tetrahydronaphthalen-1-yl)carbamate] are 0.78 nM, 6.75 nM, 3.46, 3020 ng/g and 871 ng/mL.
As to `CCCOc1cccc(-c2cc3c(cc2F)[C@H](NC(=O)O[C@@H]2CN4CCC2CC4)C(C)(C)CC3)c1` [Example 192, (S)-quinuclidin-3-yl((R)-7-fluoro-2,2-dimethyl-6-(3-propoxyphenyl)-1,2,3,4-tetrahydronaphthalen-1-yl) carbamate], the IC50 came to 0.53 nM in data set [1] (setting [6]) and 2.9 nM in data set [2] (read-out: IC50).
In the case of `CC(C)Oc1cc(-c2cc3c(cc2F)[C@H](NC(=O)O[C@@H]2CN4CCC2CC4)C(C)(C)C3)ccc1Cl` [Example 111, (S)-quinuclidin-3-yl((R)-5-(4-chloro-3-isopropoxyphenyl)-6-fluoro-2,2-dimethyl-2,3-dihydro-1H-inden-1-yl)carbamate], the IC50 was determined as 7.13 nM in data set [1] and 76.2 nM in data set [2] (Homo sapiens, Jurkat, 72 h).
Take `CC(C)COc1cccc(-c2cc3c(cc2F)[C@H](NC(=O)O[C@@H]2CN4CCC2CC4)C(C)(C)CC3)c1` [Example 191, (S)-quinuclidin-3-yl((R)-7-fluoro-6-(3-isobutoxyphenyl)-2,2-dimethyl-1,2,3,4-tetrahydronaphthalen-1-yl) carbamate]: the IC50 in data set [1] (setting [6]) was 0.62 nM; in data set [2] (read-out: IC50), 2.28 nM.
With `COc1ccc(-c2ccc3c(c2)CCC(C)(C)[C@H]3NC(=O)O[C@@H]2CN3CCC2CC3)cc1` [Example 166, (S)-quinuclidin-3-yl((R)-6-(4-methoxyphenyl)-2,2-dimethyl-1,2,3,4-tetrahydronaphthalen-1-yl)carbamate], the IC50 in data set [1] came out at 0.69 nM; in data set [2] (Homo sapiens, Jurkat, 72 h) it was 5.9 nM.
On the same counts, the results for `Cc1cc2c(cc1-c1ccc(OC(C)C)c(Cl)c1)CC(C)(C)[C@H]2NC(=O)O[C@@H]1CN2CCC1CC2` [Example 125, (S)-quinuclidin-3-yl((R)-5-(3-chloro-4-isopropoxyphenyl)-2,2,6-trimethyl-2,3-dihydro-1H-inden-1-yl)carbamate] are 2.17 nM and 10.8 nM.
Take `CCCOc1cccc(-c2ccc3c(c2)CCC(C)(C)[C@H]3NC(=O)O[C@@H]2CN3CCC2CC3)c1` [Example 159, (S)-quinuclidin-3-yl((R)-2,2-dimethyl-6-(3-propoxyphenyl)-1,2,3,4-tetrahydronaphthalen-1-yl)carbamate]: the IC50 in data set [1] was determined as 4.28 nM; in data set [2] (Homo sapiens, Jurkat, 72 h), 1.7 nM.
